Literature values in article PMC7878667, “The Kinase Specificity of Protein Kinase Inhibitor Peptide” (Frontiers in Pharmacology, 2021).

Key:
[1] = test system: PKA catalytic subunit; details: ref Murray, 2008
Excerpt: (§1) Despite the additional targets of PKI identified in our study, PKI seems more specific than the other commonly used PKA inhibitors, H89 and KT 5720 ([Murray, 2008]). This may be due to their different mechanisms of action. […] The off-target effects of these reagents have partial overlap ([Murray, 2008]).

[2] = test system: PDK1; details: ref Murray, 2008
Excerpt: as §1

[3] = test system: PKBα; details: ref Murray, 2008
Excerpt: as §1

[4] = test system: ROCK2; details: ref Murray, 2008
Excerpt: as §1

[5] = test system: PKC; details: ref Day et al., 1989; Smith et al., 1990
Excerpt: In principle, this could be due to PKI interfering with 1) the protease reaction, 2) the fluorescence detection, or 3) the FRET response. […] Second, the forms of PKC used are different: we used purified human recombinant PKC isoforms expressed in insect ce ...

Row | Compound | mechanism of PKA inhibition [1] | effect on PDK1 activity [2] | effect on PKBα [3] | effect on ROCK2 [4] | influence on PKC [5]
1 | CCCCCCOC(=O)[C@]1(O)C[C@@H]2O[C@@]1(C)n1c3ccccc3c3c4c(c5c6ccccc6n2c5c31)C(=O)NC4 [KT 5720] | competitively inhibits ATP binding on the PKA catalytic subunit | inhibited | inhibited | – | –
2 | O=S(=O)(NCCNC/C=C/c1ccc(Br)cc1)c1cccc2cnccc12 [H89] | competitively inhibits ATP binding on the PKA catalytic subunit | – | inhibited | inhibits ROCK2 potently | –
3 | IAAGRTGRRQAIHDILVAA [PKI-tide] | – | – | – | – | did not find significant influence
